# Patent US20080317692A1, “SUICIDE SUBSTRATES OF TYROSINASE AND USE THEREOF” (SUSTINEO BIOTECHNOLOGY CO., LTD, priority 2007, published 2008)
# Legend:
# mushroom tyrosinase [1] = test: Enzymatic assay of tyrosinase (dopachrome formation at 475 nm, L-tyrosine or L-DOPA as substrate); assay type: biochemical; conditions: 0.05 mM isoflavone; for inhibition of monophenolase activity (dopachrome formation): 0.1 mM L-tyrosine as substrate (FIG. 2A); for lag time of monophenolase activity (L-tyrosine oxidation): 0.1 mM L-tyrosine, tyrosinase 100 units/mL (FIG. 2A)
# Procedure: Ten microliters of the test sample (dissolved in DMSO) was mixed with 970 μL of 0.112 mM substrate (L-tyrosine or L-DOPA dissolved in 50 mM phosphate buffer, pH 6.8) at 25° C. for 2 min. […] The increase in absorbance at 475 nm due to the formation of dopachrome was monitored with a spectrophotometer.
# mushroom tyrosinase [2] = test: Partition ratio of suicide substrate (method of Waley, titration of tyrosinase); assay type: biochemical; conditions: for molecules required to inactivate 1 molecule of the enzyme (1+r): 0.1 μM tyrosinase, preincubated 30 min at 25° C., by extrapolation (FIG. 5); for partition ratio r: from the intercept on the abscissa in FIG. 5, which is 1+r
# mushroom tyrosinase [3] = test: Irreversible inhibitory activity assay (preincubation with tyrosinase, then L-DOPA); conditions: for enzyme inactivation after preincubation: 10 μM isoflavone, after 7 min of preincubation (FIG. 4); for type of inhibition: preincubation with 3 or 10 μM isoflavone
# Procedure: In irreversible inhibitory activity assays, 20 units of tyrosinase was preincubated with a 3 or 10 μM concentration of the tested isoflavone (dissolved in DMSO) in 1 mL of 50 mM phosphate buffer (pH 6.8) at 25° C. At intervals of 0, 2, 7, 12, and 30 min, 200 μL of the preincubation mixture was mixed with 800 μL of 2.5 mM L-DOPA and incubated at 25° C. for 10 min. The formation of dopachrome in each reaction was monitored with a spectrophotometer. The relative activity was calculated by dividing the absorbance at 475 nm of each reaction by that of the control reaction, in which DMSO replaced the added isoflavone. For recovery experiments, the preincubation mixture incubated for 30 min was either dialyzed twice against 200 mL of phosphate buffer at 4° C. for 1 h with stirring or centrifuged through a Sephadex G-25 spin column (Sigma). Then, the residual tyrosinase activities of the mixtures from the two treatments were assayed as described above.
# Then, 800 μL of 2.5 mM L-DOPA was added, and the reaction mixture was incubated at 25° C. for 10 min. For comparison, another set of experiments was conducted by mixing immediately the tested compound, tyrosinase, and L-DOPA in 1 mL of phosphate buffer and incubated at 25° C. for 10 min. The formation of dopachrome in each reaction was monitored with a spectrophotometer. The relative activity was calculated by dividing the absorbance at 475 nm of each reaction mixture by that of the control reaction, in which DMSO replaced the tested compound. All enzymatic reactions described above were carried out at least three times independently, and the average values are presented.
# mushroom tyrosinase [4] = test: HPLC analysis of the reaction of isoflavone with tyrosinase (substrate behaviour); assay type: biochemical; conditions: 100 μM isoflavone, tyrosinase 1000 units/mL, 50 mM phosphate buffer pH 6.8 (FIG. 3)
# mushroom tyrosinase [5] = test: Michaelis constant and maximal inactivation rate constant (method of Frere et al.); assay type: biochemical; conditions: for maximal inactivation rate constant ki-max / Ki: 0.03 μM tyrosinase, 2.5 mM L-DOPA as enzyme substrate, 50 to 300 μM suicide substrate (FIG. 6); for Ki: read-out: Michaelis constant KI of the inactivator
# Description: The kinetics of inhibition of 7,8,4′-trihydroxyisoflavone and 5,7,8,4′-tetrahydroxyisoflavone were studied by using the method of Frere et al. and by measuring the oxidation of L-DOPA by mushroom tyrosinase in the presence of each of the two suicide substrates. During the assay, the concentration of the tested suicide substrate was much higher than that of the enzyme. When the progress of the inactivation of the enzyme was monitored at high suicide substrate/enzyme ratios, the concentration of suicide substrate ([I]) could be considered as constant throughout the process and a pseudo-first-order rate constant (ki) could be determined by using equation 1, where ki-max and KI represent the maximal inactivation velocity and the Michaelis constant of the inactivator.
# In the presence of L-DOPA, the exponential decrease in the rate of oxidation of L-DOPA gave an apparent first-order rate constant kobs, which was computed from plots of ln(vt/v0) against t, where v0 and vt are the rates of increase of absorbance at 475 nm, at zero time and at time t, respectively. Assuming a competitive interaction between the added isoflavone and L-DOPA with the enzyme, the variation of kobs with the concentrations of the isoflavone ([I]) and L-DOPA ([S]) are given by equation 2
# where KS and KI are the Michaelis constants for L-DOPA and the isoflavone, respectively. When equation 2 is written as
# [I]/kobs=[I]/ki-max+KI/ki-max(1+[S]/KS) (3)
# it is clear that a plot of [I]/kobs against [I] will be linear and that ki-max and KI can be found from the intercept and slope.
# The Michaelis constants (KI) and maximal inactivation rate constants (ki-max) of suicide substrates were determined according to the method of Frere et al. (17). The inactivation reactions were carried out in the presence of 0.03 μM mushroom tyrosinase, 2.5 mM L-DOPA, and the suicide substrate at concentrations ranging from 50 to 300 μM, and the formation of dopachrome was monitored every second for 2 min with a spectrophotometer. […] Both KI and ki-max could thus be calculated, assuming a competition between the added isoflavone and L-DOPA.
lag time of monophenolase activity (L-tyrosine oxidation) (mushroom tyrosinase [1]),enzyme inactivation after preincubation (mushroom tyrosinase [3]),type of inhibition (mushroom tyrosinase [3]),Michaelis constant KS for L-DOPA (mushroom tyrosinase [5]; same experimental conditions),Compound,inhibition of monophenolase activity (dopachrome formation) (mushroom tyrosinase [1]),molecules required to inactivate 1 molecule of the enzyme (1+r) (mushroom tyrosinase [2]),partition ratio r (mushroom tyrosinase [2]),behaviour as substrate of tyrosinase (HPLC) (mushroom tyrosinase [4]),maximal inactivation rate constant ki-max (mushroom tyrosinase [5]),Ki (mushroom tyrosinase [5])
without the lag time,totally inactivated,irreversible inhibitors,,"O=c1c(-c2ccc(O)cc2)coc2c(O)c(O)cc(O)c12 [5,7,8,4′-tetrahydroxyisoflavone]",slowed and stopped the formation of dopachrome,36.5±3.8 molecules,35.5±3.8,acted as the substrates of mushroom tyrosinase,1.01 ± 0.04 L·min,7.81 ± 0.05 µM
without the lag time,totally inactivated,irreversible inhibitors,,"O=c1c(-c2ccc(O)cc2)coc2c(O)c(O)ccc12 [7,8,4′-trihydroxyisoflavone]",slowed and stopped the formation of dopachrome,82.7±5.9 molecules,81.7±5.9,acted as the substrates of mushroom tyrosinase,0.79 ± 0.08 L·min,18.7 ± 2.31 µM
,,,0.25 ± 0.01 mM,"N[C@@H](Cc1ccc(O)c(O)c1)C(=O)O [L-DOPA, 3,4-dihydroxyphenylalanine, reference compound]",,,,,,
